Read-outs that look alike come from different tables or passages of the source.
Tested on: cell lines from the Cancer Cell Line Encyclopedia (CCLE)
Experiment: High-throughput cell viability assay, CCLE cell line panel (n = 356)
Format: cell-based, human
Conditions: Homo sapiens
Procedure: Cell lines were partitioned into sensitive and insensitive groups based on compound potency (IC50). […] All other cell lines were obtained from ATCC (American Type Culture Collection), DSMZ (Deutsche Sammlung von Mikroorganismen und Zellkulturen), and HSRRB (Health Science Research Resources Bank) and cultured in RPMI or Dulbecco's modified Eagle's medium plus 10% FBS (Invitrogen, Carlsbad, CA) at 37°C, 5% CO2.

## COc1cc2c(cc1OC(C)C)[C@H](c1ccc(Cl)cc1)N(c1ccc(N(C)C[C@H]3CC[C@H](N4CCNC(=O)C4)CC3)cc1)C(=O)C2 [NVP-CFC218]
PC-3, TP53 MUT
  IC50: > 8 µM
PC-14, PC-14, TP53 MUT
  IC50: > 8 µM
PE/CA-PJ34 (clone C12), TP53 MUT
  IC50: > 8 µM
PE/CA-PJ49, TP53 WT
  IC50: > 8 µM
PK-1, TP53 MUT
  IC50: > 8 µM
PK-45H, TP53 WT
  IC50: > 8 µM
PL-21, PL-21, TP53 MUT
  IC50: > 8 µM
PSN1, PSN1, TP53 MUT
  IC50: > 8 µM
PaTu 8902, PA-TU-8902, TP53 MUT
  IC50: > 8 µM
Panc 04.03, Panc 04.03, TP53 MUT
  IC50: > 8 µM
QGP-1, QGP-1, TP53 WT
  IC50: > 8 µM
RCM-1, RCM-1, TP53 MUT
  IC50: > 8 µM
RERF-GC-1B, TP53 MUT
  IC50: > 8 µM
RERF-LC-AI, TP53 WT
  IC50: > 8 µM
RERF-LC-MS, TP53 MUT
  IC50: > 8 µM
RKO, TP53 WT
  IC50: 6.44 µM
RPMI 8402, RPMI-8402, TP53 MUT
  IC50: > 8 µM
RT-112, RT-112, TP53 MUT
  IC50: > 8 µM
Raji, TP53 MUT
  IC50: > 8 µM
Reh, TP53 WT
  IC50: 2.63 µM
S-117, S-117, TP53 MUT
  IC50: > 8 µM
SBC-5, SBC-5, TP53 MUT
  IC50: > 8 µM
SCC-4, SCC-4, TP53 MUT
  IC50: > 8 µM
SCC-9, SCC-9, TP53 MUT
  IC50: > 8 µM
SCC-25, SCC-25, TP53 MUT
  IC50: > 8 µM
SCaBER, read-out: NVP- CFC218 IC50 (µM), cell line SCaBER, urinary_tract, TP53 MUT
  IC50: > 8 µM
SF-295, SF-295, TP53 MUT
  IC50: > 8 µM
SH-10-TC, TP53 MUT
  IC50: > 8 µM
SHP77, SHP-77, TP53 MUT
  IC50: > 8 µM
SJRH30, SJRH30, TP53 MUT
  IC50: > 8 µM
SK-BR-3, SK-BR-3, TP53 MUT
  IC50: > 8 µM
SK-HEP1, read-out: NVP- CFC218 IC50 (µM), cell line SK-HEP-1, liver, TP53 WT
  IC50: > 8 µM
SK-LMS-1, SK-LMS-1, TP53 MUT
  IC50: > 8 µM
SK-LU-1, SK-LU-1, TP53 MUT
  IC50: > 8 µM
SK-MEL-5, read-out: NVP- CFC218 IC50 (µM), cell line SK-MEL-5, skin, TP53 WT
  IC50: > 8 µM
SK-MEL-24, read-out: NVP- CFC218 IC50 (µM), cell line SK-MEL-24, skin, TP53 WT
  IC50: > 8 µM
SK-MEL-30, SK-MEL-30, TP53 MUT
  IC50: > 8 µM
SK-MES-1, SK-MES-1, TP53 MUT
  IC50: > 8 µM
SK-N-AS, TP53 WT
  IC50: > 8 µM
SK-N-FI, TP53 MUT
  IC50: > 8 µM
SK-OV-3, SK-OV-3, TP53 MUT
  IC50: > 8 µM
SNU-182, SNU-182, TP53 MUT
  IC50: > 8 µM
SNU-423, read-out: NVP- CFC218 IC50 (µM), cell line SNU-423, liver, TP53 MUT
  IC50: > 8 µM
SNU-475, SNU-475, TP53 MUT
  IC50: > 8 µM
SU-DHL-4, SU-DHL-4, TP53 MUT
  IC50: > 8 µM
SU-DHL-8, SU-DHL-8, TP53 MUT
  IC50: > 8 µM
SUP-M2, SUP-M2, TP53 WT
  IC50: 1.01 µM
SW480, SW480, TP53 MUT
  IC50: > 8 µM
SW579, SW579, TP53 MUT
  IC50: > 8 µM
SW780, read-out: NVP- CFC218 IC50 (µM), cell line SW 780, urinary_tract, TP53 WT
  IC50: > 8 µM
SW900, SW 900, TP53 MUT
  IC50: > 8 µM
SW1271, SW 1271, TP53 MUT
  IC50: > 8 µM
SW1353, SW 1353, TP53 MUT
  IC50: 4.91 µM
SW1417, SW1417, TP53 MUT
  IC50: > 8 µM
SW1573, read-out: NVP- CFC218 IC50 (µM), cell line SW 1573, lung, TP53 WT
  IC50: > 8 µM
SW1783, SW 1783, TP53 MUT
  IC50: > 8 µM
SW1990, SW 1990, TP53 MUT
  IC50: > 8 µM
SW-403, read-out: NVP- CFC218 IC50 (µM), cell line SW403, large_intestine, TP53 MUT
  IC50: > 8 µM
T98G, TP53 MUT
  IC50: > 8 µM
TE 617.T, TP53 WT
  IC50: 2.91 µM
TE-1, TP53 MUT
  IC50: > 8 µM
TE-5, TP53 MUT
  IC50: > 8 µM
TE-11, read-out: NVP- CFC218 IC50 (µM), cell line TE-11, oesophagus, TP53 MUT
  IC50: > 8 µM
TOV21G, TOV-21G, TP53 WT
  IC50: 5.41 µM
TT2609-C02, TP53 MUT
  IC50: > 8 µM
U-87 MG, TP53 WT
  IC50: > 8 µM
U-937, U-937, TP53 MUT
  IC50: > 8 µM
UMUC3, read-out: NVP- CFC218 IC50 (µM), cell line UM-UC-3, urinary_tract, TP53 MUT
  IC50: > 8 µM
VMRC-RCZ, TP53 WT
  IC50: > 8 µM
WM 266-4, WM-266-4, TP53 WT
  IC50: 1.46 µM
WM983B, WM-983B, TP53 MUT
  IC50: > 8 µM
WM-115, WM-115, TP53 WT
  IC50: 3.38 µM
WSUDLCL2, WSU-DLCL2, TP53 MUT
  IC50: > 8 µM
YKG-1, YKG1, TP53 MUT
  IC50: > 8 µM
read-out: NVP- CFC218 IC50 (µM), cell line BICR 31, upper_aerodigestive_tract, TP53 MUT
  IC50: > 8 µM
read-out: NVP- CFC218 IC50 (µM), cell line C3A, liver, TP53 WT
  IC50: > 8 µM
read-out: NVP- CFC218 IC50 (µM), cell line C32, skin, TP53 WT
  IC50: > 8 µM
read-out: NVP- CFC218 IC50 (µM), cell line CCK-81, large_intestine, TP53 MUT
  IC50: > 8 µM
read-out: NVP- CFC218 IC50 (µM), cell line ES-2, ovary, TP53 MUT
  IC50: > 8 µM
read-out: NVP- CFC218 IC50 (µM), cell line HEC-108, endometrium, TP53 MUT
  IC50: > 8 µM
read-out: NVP- CFC218 IC50 (µM), cell line HEC-265, endometrium, TP53 WT
  IC50: > 8 µM
read-out: NVP- CFC218 IC50 (µM), cell line Hs 618.T, lung, TP53 WT
  IC50: > 8 µM
read-out: NVP- CFC218 IC50 (µM), cell line Hs 888.T, bone, TP53 WT
  IC50: > 8 µM
read-out: NVP- CFC218 IC50 (µM), cell line Hs 944.T, skin, TP53 WT
  IC50: > 8 µM
read-out: NVP- CFC218 IC50 (µM), cell line JHOS-2, ovary, TP53 MUT
  IC50: > 8 µM

— paper PMC4468608, “A distinct p53 target gene set predicts for response to the selective p53–HDM2 inhibitor NVP-CGM097” (eLife, 2015)
